Results: patent US20260176289A1, “SMALL MOLECULE INHIBITORS OF KRAS PROTEINS” (Merck Sharp & Dohme LLC, priority 2022, published 2026)
Like-named read-outs stand apart in the source and are kept apart here.

Key:
SW620 cells = assay: Cellular phospho-ERK assay, SW620 cells (homozygous KRAS-G12V); type: cell-based; details: Homo sapiens, read-out: SW620 pERK IC50
Procedure, shortened: (§1)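 Overnight-plated cells on collagen received test compound (up to 30 μM final, threefold steps, ten concentrations) for two hours. After lysis at room temperature, phosphorylated and total ERK were quantified together by Alpha SureFire, and IC50 is based on the phospho-to-total signal ratio.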

HRAS = HRAS (Homo sapiens, UniProt P01112); assay: SOS-catalyzed nucleotide exchange assay (Procedure A, TR-FRET), HRAS; type: biochemical; details: read-out: HRAS GNE IC50
HRAS, sequence (P01112 with tags, fused parts or gaps): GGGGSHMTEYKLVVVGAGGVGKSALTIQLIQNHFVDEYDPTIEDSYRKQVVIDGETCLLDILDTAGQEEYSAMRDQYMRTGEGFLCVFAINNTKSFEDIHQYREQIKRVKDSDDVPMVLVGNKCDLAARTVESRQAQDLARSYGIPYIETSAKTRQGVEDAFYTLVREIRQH
Text: Procedure for SOS-Catalyzed Nucleotide Exchange Assay for KRAS-WT, G12C/D/V, G13D, HRAS, and NRAS (Procedure A)
Recombinant KRAS-G12C protein used in this assay has an additional triple mutation (C51S/C80L/C118S). Whereas KRAS-WT, G12D/V, G13D, HRAS and NRAS are in context of their WT protein sequence background. Specifically, the SOS-catalyzed nucleotide exchange assay utilizes a preformed TR-FRET complex containing a specific biotinylated RAS protein (KRAS-WT, G12C/V/D, G13D, HRAS, NRAS; described above) with Bodipy-GDP, and Terbium-streptavidin. Compounds are preincubated with this complex for 60 minutes. Subsequently, recombinant human SOS protein and unlabeled GTP are added to initiate the exchange reaction. Small molecule inhibitors stabilize the Bodipy-GDP complex whereas the untreated protein rapidly exchanges Bodipy-GDP for unlabeled GTP resulting in reduced TR-FRET signal.
To assemble the preformed TR-FRET complexes, each biotinylated RAS protein is diluted to 2 μM in an EDTA Buffer (20 mM HEPES pH 7.5, 50 mM sodium chloride, 10 mM EDTA, and 0.01% Tween) and incubated at room temperature for one hour. This mixture is then further diluted to 90 nM in an Assay Buffer (20 mM HEPES pH 7.5, 150 mM sodium chloride, 10 mM magnesium chloride, and 0.005% Tween) containing 15 nM of Terbium-Streptavidin (Invitrogen, catalog #PV3577) and 900 nM of Bodipy-GDP (Invitrogen, catalog #G22360) and incubated at room temperature for six hours. It should be noted that this preformed TR-FRET complex for each of the RAS protein were made ahead of time, aliquoted and stored at −80° C. until the day of the experiment.
Each test compound (10 mM stock in DMSO) is diluted in DMSO to make a final-10-point, 3-fold dilution and is acoustically dispensed into a 384-well assay plate (Corning, catalog #3820) using an Echo 550 (Labcyte). Each well of the assay plate receives 3 μL of a specific 3×RAS preformed TR-FRET complex and 3 μL of Assay Buffer and is incubated at room temperature for 60 minutes (preincubation time). Each well then receives 3 μL of 3×recombinant human SOS protein and GTP (Sigma, G8877) in Assay Buffer and is incubated at room temperature for 30 minutes (G13D), 60 minutes (KRAS WT/G12C/D, H/NRAS) or 90 minutes for G12V. The final reaction in each well of 9 μL consists of 3 mM GTP, specific Ras and SOS proteins in the following concentrations: KRAS-G12C/SOS=3 nM/40 nM, KRAS-WT and G12D/SOS=1 nM/40 nM, KRAS-G12V/SOS=1.25 nM/160 nM. KRAS-G13D/SOS=1.25 nM/0 nM, HRAS and NRAS=1.25 nM/40 nM.
The time-resolved fluorescence resonance energy transfer (TR-FRET) signal is measured on an Envision (PerkinElmer) plate reader: Excitation filter=340 nm; emission 1=495 nm; emission2=520 nm; dichroic mirror=D400/D505; delay time=[…]. The signal of each well is determined as the ratio of the emission at 520 nm to that at 495 nm. Percent effect of each well is determined after normalization to control wells containing DMSO (no effect) or a saturating concentration of inhibitor (max effect). The apparent effect as a function of compound concentration is fit to a four-parameter logistic equation.

KRAS-G13D = KRAS-G13D (Homo sapiens, UniProt P01116, G13D); assay: SOS-catalyzed nucleotide exchange assay (Procedure A, TR-FRET), KRAS-G13D; type: biochemical; details: nucleotide exchange, Procedure A; read-out: KRAS G13D GNE IC50
KRAS-G13D, sequence (P01116 with tags, fused parts or gaps isoform P01116-2 G13D): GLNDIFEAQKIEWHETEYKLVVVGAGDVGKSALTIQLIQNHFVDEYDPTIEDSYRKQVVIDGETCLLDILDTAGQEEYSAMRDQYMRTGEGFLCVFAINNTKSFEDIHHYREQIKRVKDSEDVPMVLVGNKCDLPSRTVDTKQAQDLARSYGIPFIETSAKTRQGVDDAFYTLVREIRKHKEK

KRAS-G12V = KRAS-G12V (Homo sapiens, UniProt P01116, G12V); assay: SOS-catalyzed nucleotide exchange assay (Procedure A, TR-FRET), KRAS-G12V; type: biochemical; details: nucleotide exchange, read-out: KRAS G12V GNE IC50
KRAS-G12V, sequence (P01116 with tags, fused parts or gaps isoform P01116-2 G12V): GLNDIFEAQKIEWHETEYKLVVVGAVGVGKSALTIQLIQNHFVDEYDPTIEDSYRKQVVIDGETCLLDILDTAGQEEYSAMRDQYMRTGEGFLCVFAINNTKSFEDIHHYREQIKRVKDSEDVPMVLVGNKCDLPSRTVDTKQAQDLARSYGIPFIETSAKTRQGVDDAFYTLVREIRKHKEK
Procedure, shortened: (§2)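 TR-FRET readout (520/495 nm) of SOS-driven exchange of Bodipy-GDP for unlabeled GTP (3 mM) on biotinylated, Tb-streptavidin-bound RAS, after 60 min compound preincubation at room temperature. Exchange times and RAS/SOS levels: 60 min for WT (1/40 nM), G12C triple mutant (3/40 nM), NRAS (1.25/40 nM); 90 min for G12V (1.25/160 nM). Four-parameter logistic fits on normalized effect.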

AsPC-1 cells = assay: Cellular phospho-ERK assay, AsPC-1 cells (homozygous KRAS-G12D); type: cell-based; details: Homo sapiens, ASPC1, 2 h, read-out: AsPC1 pERK IC50
Procedure, shortened: as §1

[1] = target: KRAS-G12C (C51S/C80L/C118S) (Homo sapiens, UniProt P01116, C118S/C51S/C80L/G12C); assay: SOS-catalyzed nucleotide exchange assay (Procedure A, TR-FRET), KRAS-G12C; type: biochemical; details: nucleotide exchange, Procedure A; read-out: KRAS G12C GNE IC50
KRAS-G12C (C51S/C80L/C118S), sequence (P01116 with tags, fused parts or gaps isoform P01116-2 G12C/C51S/C80L/C118S): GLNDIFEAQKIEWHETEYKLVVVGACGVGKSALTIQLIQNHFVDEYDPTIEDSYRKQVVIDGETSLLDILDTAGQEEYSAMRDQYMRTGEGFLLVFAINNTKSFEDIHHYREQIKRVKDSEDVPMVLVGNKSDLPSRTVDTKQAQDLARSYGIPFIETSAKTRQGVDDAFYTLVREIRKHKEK
Procedure, shortened: as §2

KRAS-G12D = KRAS-G12D (Homo sapiens, UniProt P01116, G12D); assay: SOS-catalyzed nucleotide exchange assay (Procedure A, TR-FRET), KRAS-G12D; type: biochemical; details: nucleotide exchange, read-out: KRAS G12D GNE IC50
KRAS-G12D, sequence (P01116 with tags, fused parts or gaps isoform P01116-2 G12D): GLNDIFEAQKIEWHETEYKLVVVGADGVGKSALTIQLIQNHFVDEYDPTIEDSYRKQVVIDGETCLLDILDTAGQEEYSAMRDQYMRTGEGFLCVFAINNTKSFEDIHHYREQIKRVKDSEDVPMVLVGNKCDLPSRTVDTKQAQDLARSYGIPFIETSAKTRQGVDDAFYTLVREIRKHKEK
Procedure, shortened: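 Signal ratio (520/495 nm, excitation 340 nm) reports Bodipy-GDP retention on biotinylated RAS after SOS-catalyzed exchange with 3 mM GTP. SOS was 40 nM, except 160 nM for G12V. Room-temperature exchange lasted 60 min (90 min for G12V), following a 60 min compound preincubation.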

KRAS-WT = KRAS-WT (Homo sapiens, UniProt P01116); assay: SOS-catalyzed nucleotide exchange assay (Procedure A, TR-FRET), KRAS-WT; type: biochemical; details: nucleotide exchange, read-out: KRAS WT GNE IC50
KRAS-WT, sequence (P01116 with tags, fused parts or gaps isoform P01116-2): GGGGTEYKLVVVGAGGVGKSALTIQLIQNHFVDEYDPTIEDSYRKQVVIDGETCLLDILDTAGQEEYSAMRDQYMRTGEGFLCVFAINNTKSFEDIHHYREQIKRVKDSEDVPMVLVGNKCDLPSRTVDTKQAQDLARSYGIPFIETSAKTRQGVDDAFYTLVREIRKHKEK
Procedure, shortened: as §2

MKN-1 cells = assay: Cellular phospho-ERK assay, MKN-1 cells (amplified wild-type KRAS); type: cell-based; details: Homo sapiens, read-out: MKN1 pERK IC50
Procedure, shortened: as §1

[2] = amplified wild-type KRAS, 2 hours
[3] = SW-620, 2 hours compound incubation

Row | IC50 (HRAS) | IC50 (KRAS-G13D) | IC50 (KRAS-G12V) | IC50 [1] | IC50 (KRAS-G12D) | IC50 (KRAS-WT) | IC50 (SW620 cells; [3]) | IC50 (AsPC-1 cells; 2 hours compound incubation) | IC50 (MKN-1 cells; 2 hours compound incubation) | SMILES | IC50 (SW620 cells; SW-620, KRAS-G12V, 2 hours) | IC50 (AsPC-1 cells; KRAS-G12D, 2 hours) | IC50 (MKN-1 cells; [2])
1 | 5540 nM | 4.55 nM | 5.25 nM | 53.2 nM | 2.43 nM | 4.41 nM | 7.87 nM | 18.9 nM | 19.9 nM | C#Cc1c(F)ccc2cc3[nH]ncc3c(-c3nccc4c3sc3nc(OC[C@@]56CCCN5C[C@H](F)C6)nc(N5CCOC[C@@](C)(O)C5)c34)c12 [Ex-160, (6S)-4-(8-(5-ethynyl-6-fluoro-1H-benzo[f]indazol-4-yl)-2-(((2R,7aS)-2-fluorotetrahydro-1H-pyrrolizin-7a(5H)-yl)methoxy)pyrido[4′,3′:4,5]thieno[2,3-d]pyrimidin-4-yl)-6-methyl-1,4-oxazepan-6-ol] |  |  | 
2 | 4190 nM | 10.3 nM | 5.79 nM | 87.5 nM | 2.47 nM | 5.72 nM | 27.6 nM | 56 nM | 30.7 nM | CN1CCC[C@@]2(COc3nc(N4CCOC[C@@](C)(O)C4)c4c(n3)sc3c(-c5c(C6(F)CC6)c(Cl)cc6[nH]ncc56)nccc34)CCC[C@@H]12 [Ex-268, (6S)-4-(8-(6-chloro-5-(1-fluorocyclopropyl)-1H-indazol-4-yl)-2-(((4aS,7aR)-1-methyloctahydro-4aH-cyclopenta[b]pyridin-4a-yl)methoxy)pyri-do[4′,3′:4,5]thi-eno[2,3-d]pyrimidin-4-yl)-6-methyl-1,4-oxazepan-6-ol] |  |  | 
3 | 1290 nM | 15.9 nM | 12.9 nM | 19.1 nM | 4.22 nM | 18.5 nM | 47.6 nM | 70.4 nM | 44 nM | C[C@@]1(O)COCCN(c2nc(OC[C@]3(CN4CC5(CCOC5)C4)CC3(F)F)nc3sc4c(-c5c(C6(F)CC6)c(Cl)cc6[nH]ncc56)nccc4c23)C1 [Ex-245, (6S)-4-(2-(((R)-1-((6-oxa-2-azaspiro[3.4]octan-2-yl)methyl)-2,2-difluorocyclopropyl)methoxy)-8-(6-chloro-5-(1-fluorocyclopropyl)-1H-indazol-4-yl)pyrido[4′,3′:4,5]thieno[2,3-d)pyrimidin-4-yl)-6-methyl-1,4-oxazepan-6-ol] |  |  | 
4 | 9790 nM | 7.05 nM | 13.5 nM | 15.5 nM | 2.22 nM | 7.7 nM | 25.8 nM | 30.9 nM | 21.2 nM | CCC1CCc2cc3[nH]ncc3c(-c3nccc4c3sc3nc(OC[C@@]56CCCN5C[C@H](F)C6)nc(N5CCOC[C@@](C)(O)C5)c34)c21 (stereo partly drawn) [Ex-169, (6S)-4-(8-(5-ethyl-1,5,6,7-tetrahydro-cyclopenta[f]indazol-4-yl)-2-(((2R,7aS)-2-fluorotetrahydro-1H-pyrrolizin-7a(5H)-yl)methoxy)pyrido [4′,3′:4,5]thieno[2,3-d]pyrimidin-4-yl)-6-methyl-1,4-oxaze-pan-6-ol] |  |  | 
5 | 943 nM | 21.3 nM | 15.5 nM | 11.4 nM | 2.69 nM | 20.2 nM | 51.2 nM | 73.8 nM | 36.5 nM | C[C@@]1(O)COCCN(c2nc(OC[C@]3(CN4CC5(CCCOC5)C4)CC3(F)F)nc3sc4c(-c5c(C6(F)CC6)c(Cl)cc6[nH]ncc56)nccc4c23)C1 [Ex-249, (6S)-4-(2-(((R)-1-((6-oxa-2-azaspiro[3.5]nonan-2-yl)methyl)-2,2-difluorocyclopropyl)methoxy)-8-(6-chloro-5-(1-fluorocyclopropyl)-1H-indazol-4-yl)pyrido[4′,3′:4,5]thieno[2,3-d]pyrimidin-4-yl)-6-methyl-1,4-oxazepan-6-ol] |  |  | 
6 | 5090 nM | 10.7 nM | 4.42 nM | 40.1 nM | 1.69 nM | 3.94 nM | 15.1 nM | 22.3 nM | 17 nM | CN1CCC[C@@]2(COc3nc(N4CCOC[C@@](C)(O)C4)c4c(n3)sc3c(-c5c(C6CC6)c(C(F)(F)F)cc6[nH]ncc56)nccc34)CCC[C@@H]12 [Ex-205, (6S)-4-(8-(5-cyclopropyl-6-(trifluoromethyl)-1H-indazol-4-yl)-2-(((4aS,7aR)-1-methyloctahydro-4aH-cyclopenta[b]pyridin-4a-yl)methoxy)pyrido[4′,3′:4,5]thieno[2,3-d]pyrimidin-4-yl)-6-methyl-1,4-oxazepan-6-ol] |  |  | 
7 | 492 nM | 15 nM | 8.77 nM | 20.3 nM | 2.87 nM | 8.55 nM |  | 25.7 nM |  | [2H]C([2H])([2H])N(C[C@@]1(COc2nc(N3CCOC[C@@](C)(O)C3)c3c(n2)sc2c(-c4c(C5(F)CC5)c(Cl)cc5[nH]ncc45)nccc23)CC1(F)F)C([2H])([2H])[2H] [Ex-231] |  |  | 

Row | SMILES | IC50 (HRAS) | IC50 (KRAS-G13D) | IC50 (KRAS-G12V) | IC50 [1] | IC50 (KRAS-G12D) | IC50 (KRAS-WT) | IC50 (SW620 cells; [3]) | IC50 (AsPC-1 cells; 2 hours compound incubation) | IC50 (MKN-1 cells; 2 hours compound incubation) | IC50 (SW620 cells; SW-620, KRAS-G12V, 2 hours) | IC50 (AsPC-1 cells; KRAS-G12D, 2 hours) | IC50 (MKN-1 cells; [2])
8 | CC1CCc2cc3[nH]ncc3c(-c3nccc4c3sc3nc(OC[C@@]56CCCN5C[C@H](F)C6)nc(N5CCOC[C@@](C)(O)C5)c34)c21 (single isomer, unassigned) [Ex-103] | 8010 nM | 4.51 nM | 8.72 nM | 18.1 nM | 2.12 nM | 6.28 nM |  |  |  | 19.9 nM | 26.3 nM | 30.9 nM
9 | CCC1c2c(cc3[nH]ncc3c2-c2nccc3c2sc2nc(OC[C@@]45CCCN4C/C(=C\F)C5)nc(N4CCOC[C@@](C)(O)C4)c23)CC1(F)F (single isomer, unassigned) [Ex-109] | 8060 nM | 4.73 nM | 5.48 nM | 34.2 nM | 4.33 nM | 6.12 nM |  |  |  | 18.8 nM | 38.4 nM | 15.5 nM
